Assay results: the supplement of paper PMC4862054
Each block holds one compound with its values, some of them ahead of it.

Columns and labels:
Details in all cases: 72 h
[1] = system: SK-BR-3
Procedure, shortened: (§1)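 Compound dissolved in 5 µl medium was placed in 384-well plates before 20 µl of breast cancer cell suspension was added, and the plates were incubated for 72 h. Cells then received 2.5 µl CellTiter-Blue for 2 h at 37 °C, and fluorescence was read at 560/590 nm. EC50 values come from percent-inhibition dose-response fits that were censored at the highest concentration, with plates normalised to vehicle and a positive kill control and rows with a zero drug sensitivity score excluded.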

[2] = system: BT-549
Procedure, shortened: as §1

[3] = system: Hs578T
Procedure, shortened: as §1

[4] = system: MDA-MB-468
Procedure, shortened: as §1

[5] = system: MDA-MB-436
Procedure, shortened: as §1

[6] = system: HCC1599
Procedure, shortened: as §1

[7] = system: HCC1143
Procedure, shortened: as §1

[8] = system: CAL-51
Procedure, shortened: as §1

[9] = system: DU-4475
Procedure, shortened: as §1

[10] = system: CAL-85-1
Procedure, shortened: as §1

[11] = system: HDQ-P1
Procedure, shortened: as §1

[12] = system: MFM-223
Procedure, shortened: as §1

[13] = system: MFM-223; remark: listed apart in the source
Procedure, shortened: (§2)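 In this assay, breast cancer cell lines spent 72 h with compound at 5 concentrations in 10-fold steps over a compound-specific 10,000-fold range. The first readout was cell death by CellTox Green fluorescence, and the second was viability by CellTiter-Glo luminescence, each normalised per plate to 0.1 % DMSO and a positive kill control. EC50 came from the dose-response curves, censored at the top concentration.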

[14] = system: BT-549; remark: listed apart in the source
Procedure, shortened: as §2

[15] = system: MDA-MB-231
Procedure, shortened: as §2

[16] = system: CAL-51; remark: listed apart in the source
Procedure, shortened: as §2

[17] = system: MDA-MB-468; remark: listed apart in the source
Procedure, shortened: as §2

[18] = system: HCC1937
Procedure, shortened: as §2

[19] = system: DU-4475; remark: listed apart in the source
Procedure, shortened: as §2

[20] = system: CAL-120
Procedure, shortened: as §2

[21] = system: CAL-85-1; remark: listed apart in the source
Procedure, shortened: as §2

[22] = system: MDA-MB-436; remark: listed apart in the source
Procedure, shortened: as §2

[23] = system: MDA-MB-453
Procedure, shortened: as §2

[24] = system: MCF-10A
Procedure, shortened: as §2

[25] = system: HDQ-P1; remark: listed apart in the source
Procedure, shortened: as §2

[26] = system: BT-474
Procedure, shortened: as §2

[27] = system: MDA-MB-231; remark: listed apart in the source
Protocol: (§3)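 Drug sensitivity and resistance testing (DSRT) of breast cancer cell lines in 384-well plates, 5 concentrations in 10-fold dilutions over a compound-specific 10,000-fold range. After 72 h, cytotoxicity was read by CellTox Green fluorescence and viability by CellTiter-Glo luminescence (multiplexed), normalised to DMSO and benzethonium chloride controls. EC50 is the inflection point of the fitted dose-response curve (bottom asymptote free, so it can be relative for partial curves) and is censored at the highest tested concentration. Rows with DSS 0 (no meaningful response) were excluded.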

[28] = system: HCC1937; remark: listed apart in the source
Protocol: as §3

[29] = system: CAL-120; remark: listed apart in the source
Protocol: as §3

[30] = system: SK-BR-3; remark: listed apart in the source
Procedure, shortened: as §2

[31] = system: Hs578T; remark: listed apart in the source
Procedure, shortened: as §2

[32] = system: HCC1143; remark: listed apart in the source
Procedure, shortened: as §2

[33] = system: BT-549; remark: listed apart in the source
Protocol: as §3

[34] = system: MDA-MB-468; remark: listed apart in the source
Protocol: as §3

[35] = system: CAL-85-1; remark: listed apart in the source
Protocol: as §3

[36] = system: MDA-MB-436; remark: listed apart in the source
Protocol: as §3

[37] = system: BT-474; remark: listed apart in the source
Protocol: as §3

[38] = system: CAL-148
Protocol: as §3

SMILES: CS(=O)(=O)c1ccc(C2=C(c3ccccc3)C(=O)OC2)cc1 [Rofecoxib]
- EC50, CellTiter-Glo [16]: > 10000 nM

SMILES: C[C@]12CC[C@@H]3c4ccc(O)cc4C[C@@H](CCCCCCCCC[S+]([O-])CCCC(F)(F)C(F)(F)F)[C@H]3[C@@H]1CC[C@@H]2O (some centres undefined) [Fulvestrant]
- EC50, CellTiter-Blue viability [12]: 74.5 nM

SMILES: O=C1CCC(N2C(=O)c3ccccc3C2=O)C(=O)N1 (centres undefined) [Thalidomide]
- EC50, CellTox Green [38]: > 10000 nM

SMILES: CC1(C)NC(=O)N(c2ccc([N+](=O)[O-])c(C(F)(F)F)c2)C1=O [Nilutamide]
- EC50, CellTiter-Glo [16]: 724 nM

SMILES: O=P1(NCCCl)OCCCN1CCCl (centres undefined) [Ifosfamide]
- EC50, CellTiter-Glo [26]: > 10000 nM
- EC50, CellTox Green [33]: > 10000 nM
- EC50, CellTox Green [36]: > 10000 nM

SMILES: CN(C)/N=N/c1[nH]cnc1C(N)=O [Dacarbazine]
- EC50, CellTiter-Glo [20]: > 10000 nM

SMILES: Cn1c(CCCC(=O)O)nc2cc(N(CCCl)CCCl)ccc21 [Bendamustine]
- EC50, CellTiter-Blue viability [1]: > 10000 nM

Continued, in another order:

- EC50, CellTiter-Blue viability [1]: 364 nM
- EC50, CellTiter-Blue viability [2]: 670 nM
- EC50, CellTiter-Blue viability [4]: 610 nM
- EC50, CellTiter-Blue viability [5]: 333 nM
- EC50, CellTiter-Blue viability [6]: 87.7 nM
- EC50, CellTiter-Blue viability [7]: 705 nM
SMILES: NC(=O)Nc1cc(-c2cccc(F)c2)sc1C(=O)N[C@H]1CCCNC1 [AZD 7762]
- EC50, CellTiter-Blue viability [3]: 211 nM
- EC50, CellTiter-Blue viability [8]: 564 nM
- EC50, CellTiter-Blue viability [9]: 619 nM
- EC50, CellTiter-Blue viability [10]: 215 nM
- EC50, CellTiter-Blue viability [11]: 508 nM

- EC50, CellTiter-Blue viability [2]: 893 nM
- EC50, CellTiter-Blue viability [6]: 217 nM
- EC50, CellTiter-Glo [14]: 689 nM
- EC50, CellTiter-Glo [15]: 382 nM
- EC50, CellTiter-Glo [17]: > 1000 nM
- EC50, CellTiter-Glo [18]: > 1000 nM
- EC50, CellTiter-Glo [22]: 265 nM
- EC50, CellTiter-Glo [23]: > 1000 nM
- EC50, CellTiter-Glo [26]: 244 nM
SMILES: Cc1ccc(C(=O)Nc2ccc(CN3CCN(C)CC3)c(C(F)(F)F)c2)cc1C#Cc1cnc2cccnn12 [Ponatinib]
- EC50, CellTiter-Blue viability [12]: 8.43 nM
- EC50, CellTiter-Blue viability [3]: > 1000 nM
- EC50, CellTiter-Glo [13]: 31.8 nM
- EC50, CellTiter-Glo [16]: 844 nM
- EC50, CellTiter-Glo [19]: 588 nM
- EC50, CellTiter-Glo [20]: 162 nM
- EC50, CellTiter-Glo [21]: > 1000 nM
- EC50, CellTiter-Glo [24]: 643 nM
- EC50, CellTiter-Glo [25]: 220 nM
- EC50, CellTiter-Blue viability [8]: 869 nM
- EC50, CellTiter-Blue viability [11]: 307 nM
- EC50, CellTox Green [27]: 231 nM
- EC50, CellTox Green [28]: 387 nM
- EC50, CellTox Green [29]: 482 nM

- EC50, CellTiter-Glo [30]: 2900 nM
- EC50, CellTiter-Glo [14]: 2110 nM
- EC50, CellTiter-Glo [15]: 5190 nM
- EC50, CellTiter-Glo [17]: 3480 nM
- EC50, CellTiter-Glo [32]: 1570 nM
- EC50, CellTiter-Glo [26]: 5780 nM
SMILES: N#CCNC(=O)c1ccc(-c2ccnc(Nc3ccc(N4CCOCC4)cc3)n2)cc1 [Momelotinib]
- EC50, CellTiter-Glo [31]: 2240 nM
- EC50, CellTiter-Glo [20]: 1380 nM
- EC50, CellTiter-Glo [21]: 2160 nM
- EC50, CellTiter-Glo [24]: 6590 nM
- EC50, CellTox Green [33]: 3300 nM
- EC50, CellTox Green [27]: 77.2 nM
- EC50, CellTox Green [34]: 5270 nM
- EC50, CellTox Green [35]: 1630 nM

- EC50, CellTiter-Glo [30]: 26.3 nM
- EC50, CellTiter-Glo [17]: 179 nM
- EC50, CellTiter-Glo [23]: 74.8 nM
- EC50, CellTiter-Glo [26]: > 1000 nM
SMILES: COc1cc2ncnc(Nc3ccc(F)c(Cl)c3)c2cc1NC(=O)/C=C/CN1CCCCC1 [Dacomitinib]
- EC50, CellTiter-Glo [21]: 56.8 nM
- EC50, CellTiter-Glo [24]: 6.27 nM
- EC50, CellTiter-Glo [25]: 3.24 nM
- EC50, CellTox Green [35]: 564 nM
- EC50, CellTox Green [36]: 319 nM
- EC50, CellTox Green [37]: 82.4 nM

- EC50, CellTiter-Glo [18]: 2080 nM
- EC50, CellTiter-Glo [22]: > 2500 nM
SMILES: CCCCCCCCCCCCCCCCCCOP(=O)([O-])OC1CC[N+](C)(C)CC1 [Perifosine]
- EC50, CellTiter-Glo [24]: > 2500 nM

- EC50, CellTiter-Glo [17]: 937 nM
SMILES: Cc1ccc(-n2nc(C(C)(C)C)cc2NC(=O)Nc2ccc(OCCN3CCOCC3)c3ccccc23)cc1 [Doramapimod]
- EC50, CellTiter-Glo [13]: 2800 nM
- EC50, CellTiter-Blue viability [10]: 27.3 nM

- EC50, CellTiter-Blue viability [2]: 23.1 nM
- EC50, CellTiter-Blue viability [4]: 44.5 nM
SMILES: CCN(CCCOc1ccc2c(Nc3cc(CC(=O)Nc4cccc(F)c4)[nH]n3)ncnc2c1)CCOP(=O)(O)O [Barasertib]
- EC50, CellTiter-Blue viability [3]: 12.5 nM
- EC50, CellTiter-Blue viability [8]: 37.9 nM
- EC50, CellTiter-Blue viability [9]: 375 nM
- EC50, CellTiter-Blue viability [10]: 9.39 nM
